Experimental findings from US20170107207A1, “AMINOPYRAZOLONE DERIVATIVE” (DAIICHI SANKYO COMPANY, LIMITED, priority 2014, published 2017) are described below.

In experiment [1] the target is T1, TIP48/TIP49 complex (Homo sapiens, UniProt Q9Y230+Q9Y265).
T1 construct: made in house; host or cells: E. coli
The experiment is described as follows: ATPase assay of TIP48/TIP49 complex (ADP-Glo). Format: biochemical. The conditions noted are these: concentration at which the ATPase activity was inhibited by 50%. In outline:
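Compound was tested over 10 four-fold concentrations, 200 μM down to 0.0007 μM at 2% DMSO, against E. coli-derived human rTIP48/rTIP49 for 1.5 h at room temperature, pH 7.5 with ATP. ATP hydrolysis was read as ADP-Glo luminescence, normalised to complex-only and no-complex wells, then fitted to dose-response curves.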
A general note: In ADP-Glo the light output rises with the ADP produced.

Experiment [2] deals with human lymphoma cell line RAMOS cells. The experiment is described as follows: Cell growth inhibition test using RAMOS cell, ATP assay (CellTiter-Glo). Type of experiment: cell-based. The note with it: Homo sapiens, Ramos, 72 h, cultured 3 days, 50% growth inhibition concentration. In short, it runs like this: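 RAMOS cells seeded at 4000 cells/well with compound and cultured 3 days at 37° C, 5% CO2; viability by CellTiter-Glo luminescence. Growth rate T/C % = 100×[(B−C)/(A−C)] using day-0 and final readings; GI50 interpolated from the two concentrations bracketing 50% growth.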
Background: ATP-based viability assays read luminescence as a measure of living cells.

T1 sequence (Q9Y230 whole entry): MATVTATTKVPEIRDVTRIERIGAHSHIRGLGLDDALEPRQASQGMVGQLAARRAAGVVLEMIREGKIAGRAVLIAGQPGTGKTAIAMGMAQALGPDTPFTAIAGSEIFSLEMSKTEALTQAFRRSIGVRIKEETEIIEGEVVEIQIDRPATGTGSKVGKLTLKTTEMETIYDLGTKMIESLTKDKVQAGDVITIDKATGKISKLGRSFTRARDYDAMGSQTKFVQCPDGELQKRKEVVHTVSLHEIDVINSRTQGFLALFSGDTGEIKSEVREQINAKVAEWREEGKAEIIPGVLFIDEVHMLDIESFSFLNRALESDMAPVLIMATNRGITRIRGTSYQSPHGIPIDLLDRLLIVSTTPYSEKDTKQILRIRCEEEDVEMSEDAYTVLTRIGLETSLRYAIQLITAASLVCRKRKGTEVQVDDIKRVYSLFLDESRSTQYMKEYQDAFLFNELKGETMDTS
T1 sequence (Q9Y265 whole entry): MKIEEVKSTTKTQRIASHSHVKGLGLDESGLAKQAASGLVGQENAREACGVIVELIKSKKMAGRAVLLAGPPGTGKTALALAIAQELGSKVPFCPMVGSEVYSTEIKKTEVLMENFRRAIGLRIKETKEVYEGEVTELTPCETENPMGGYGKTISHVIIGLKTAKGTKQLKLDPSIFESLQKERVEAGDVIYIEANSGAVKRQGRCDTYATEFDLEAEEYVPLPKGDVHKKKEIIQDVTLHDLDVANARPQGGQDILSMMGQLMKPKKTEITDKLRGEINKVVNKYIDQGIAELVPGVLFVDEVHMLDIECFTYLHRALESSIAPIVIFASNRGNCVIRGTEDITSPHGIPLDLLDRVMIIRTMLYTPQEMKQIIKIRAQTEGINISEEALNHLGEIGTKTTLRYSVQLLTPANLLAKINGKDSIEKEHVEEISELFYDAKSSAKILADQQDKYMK

For the molecule `CCOc1ccc(Cl)cc1C(=O)NCC(C)(C)CC(=O)Nc1c([C@@H](C)CN(C)C)n(C)n(-c2ccccc2)c1=O` [Example 67, 5-Chloro-N-[4-({5-[(1S)-2-(dimethylamino)-1-methylethyl]-1-methyl-3-oxo-2-phenyl-2,3-dihydro-1H-pyrazol-4-yl}amino)-2,2-dimethyl-4-oxobutyl]-2-ethoxybenzamide], the IC50 in experiment [1] was 36 nM. For the same molecule, the GI50 in experiment [2] worked out at 150 nM.

`CCOc1cc(F)c(Cl)cc1C(=O)NCC(C)(C)CC(=O)Nc1c(C(C)CN(C)C)n(C)n(-c2ccccc2)c1=O` (stereo not drawn) [Example 69, 5-Chloro-N-[4-({5-[2-(dimethylamino)-1-methylethyl]-1-methyl-3-oxo-2-phenyl-2,3-dihydro-1H-pyrazol-4-yl}amino)-2,2-dimethyl-4-oxobutyl]-2-ethoxy-4-fluorobenzamide] showed an IC50 in experiment [1] of 65 nM. The molecule further showed a GI50 in experiment [2] of 160 nM.

In experiment [1], `CCOc1cc(F)c(Cl)cc1C(=O)NCC(C)(C)CC(=O)Nc1c([C@H](C)CN(C)C)n(C)n(-c2ccccc2)c1=O` [Example 70, 5-Chloro-N-[4-({5-[(1R)-2-(dimethylamino)-1-methylethyl]-1-methyl-3-oxo-2-phenyl-2,3-dihydro-1H-pyrazol-4-yl}amino)-2,2-dimethyl-4-oxobutyl]-2-ethoxy-4-fluorobenzamide] returned an IC50 of 84 nM. The molecule further came in with a GI50 in experiment [2] of 160 nM.

Take `CCOc1ncc(Cl)cc1C(=O)NCC(C)(C)CC(=O)Nc1c(C(C)CN(C)C)n(C)n(-c2ccccc2)c1=O` (stereo not drawn) [Example 71, 5-Chloro-N-[4-({5-[2-(dimethylamino)-1-methylethyl]-1-methyl-3-oxo-2-phenyl-2,3-dihydro-1H-pyrazol-4-yl}amino)-2,2-dimethyl-4-oxobutyl]-2-ethoxypyridine-3-carboxamide]: in experiment [1], half-maximal inhibition (IC50) required 90 nM. Moreover, growth in experiment [2] was halved (GI50) at 420 nM.

Take `CCOc1ncc(Cl)cc1C(=O)NCC(C)(C)CC(=O)Nc1c([C@@H](C)CN(C)C)n(C)n(-c2ccccc2)c1=O` [Example 72, 5-Chloro-N-[4-({5-[(1S)-2-(dimethylamino)-1-methylethyl]-1-methyl-3-oxo-2-phenyl-2,3-dihydro-1H-pyrazol-4-yl}amino)-2,2-dimethyl-4-oxobutyl]-2-ethoxypyridine-3-carboxamide]: the IC50 in experiment [1] was found to be 80 nM. In experiment [2], this molecule displayed a GI50 of 510 nM.

Take `CCOc1ncc(Br)cc1C(=O)NCC(C)(C)CC(=O)Nc1c(C(C)CN(C)C)n(C)n(-c2ccccc2)c1=O` (stereo not drawn) [Example 74, 5-Bromo-N-[4-({5-[2-(dimethylamino)-1-methylethyl]-1-methyl-3-oxo-2-phenyl-2,3-dihydro-1H-pyrazol-4-yl}amino)-2,2-dimethyl-4-oxobutyl]-2-ethoxypyridine-3-carboxamide]: in experiment [1], the IC50 was 180 nM. Also, the GI50 in experiment [2] was 470 nM.

`COCOc1cc(Cl)c(Cl)cc1C(=O)NCC(C)(C)CC(=O)Nc1c(C(C)CN(C)C)n(C)n(-c2ccccc2)c1=O` (stereo not drawn) [Example 75, 4,5-Dichloro-N-[4-({5-[2-(dimethylamino)-1-methylethyl]-1-methyl-3-oxo-2-phenyl-2,3-dihydro-1H-pyrazol-4-yl}amino)-2,2-dimethyl-4-oxobutyl]-2-(methoxymethoxy)benzamide]: the IC50 in experiment [1] was 99 nM. The molecule also came in with a GI50 in experiment [2] of 270 nM.

In turn, `CCOc1ccc(Cl)cc1C(=O)NCC(C)(C)CC(=O)Nc1c(C(C)CNC)n(C)n(-c2ccccc2)c1=O` (stereo not drawn) [Example 76, 5-Chloro-N-[2,2-dimethyl-4-({1-methyl-5-[1-methyl-2-(methylamino)ethyl]-3-oxo-2-phenyl-2,3-dihydro-1H-pyrazol-4-yl}amino)-4-oxobutyl]-2-ethoxybenzamide] returned a half-inhibitory concentration (IC50) in experiment [1] of 68 nM. This molecule also registered a GI50 in experiment [2] of 590 nM.

As to `CCOc1ncc(Cl)cc1C(=O)NCC(C)(C)CC(=O)Nc1c(C(C)CNC)n(C)n(-c2ccccc2)c1=O` (stereo not drawn) [Example 77, 5-Chloro-N-[2,2-dimethyl-4-({1-methyl-5-[1-methyl-2-(methylamino)ethyl]-3-oxo-2-phenyl-2,3-dihydro-1H-pyrazol-4-yl}amino)-4-oxobutyl]-2-ethoxypyridine-3-carboxamide], the IC50 in experiment [1] was 92 nM. Besides, it took 800 nM to inhibit growth in experiment [2] by half (GI50).

In experiment [1], `CNCC(C)c1c(NC(=O)CC(C)(C)CNC(=O)c2cc(Cl)cc3cc(C)oc23)c(=O)n(-c2ccccc2)n1C` (stereo not drawn) [Example 78, 5-Chloro-N-[2,2-dimethyl-4-({1-methyl-5-[1-methyl-2-(methylamino)ethyl]-3-oxo-2-phenyl-2,3-dihydro-1H-pyrazol-4-yl}amino)-4-oxobutyl]-2-methylbenzofuran-7-carboxamide] yielded an IC50 of 70 nM. Also, the GI50 in experiment [2] turned out to be 480 nM.

In experiment [1], `CCOc1ccc(Cl)cc1C(=O)NCC(C)(C)CC(=O)Nc1c(C(CN(C)C)OC)n(C)n(-c2ccccc2)c1=O` (stereo not drawn) [Example 79, 5-Chloro-N-[4-({5-[2-(dimethylamino)-1-methoxyethyl]-1-methyl-3-oxo-2-phenyl-2,3-dihydro-1H-pyrazol-4-yl}amino)-2,2-dimethyl-4-oxobutyl]-2-ethoxybenzamide] displayed an IC50 of 51 nM. The molecule further displayed a GI50 in experiment [2] of 140 nM.

Take `CCOc1cc(F)c(Cl)cc1C(=O)NCC(C)(C)CC(=O)Nc1c(C(CN(C)C)OC)n(C)n(-c2ccccc2)c1=O` (stereo not drawn) [Example 80, 5-Chloro-N-[4-({5-[2-(dimethylamino)-1-methoxyethyl]-1-methyl-3-oxo-2-phenyl-2,3-dihydro-1H-pyrazol-4-yl}amino)-2,2-dimethyl-4-oxobutyl]-2-ethoxy-4-fluorobenzamide]: half-maximal inhibition in experiment [1] (IC50) was put at 140 nM. This molecule also gave a concentration for 50% growth inhibition (GI50) in experiment [2] of 170 nM.

In turn, `CCOc1ncc(Cl)cc1C(=O)NCC(C)(C)CC(=O)Nc1c(C(CN(C)C)OC)n(C)n(-c2ccccc2)c1=O` (stereo not drawn) [Example 81, 5-Chloro-N-[4-({5-[2-(dimethylamino)-1-methoxyethyl]-1-methyl-3-oxo-2-phenyl-2,3-dihydro-1H-pyrazol-4-yl}amino)-2,2-dimethyl-4-oxobutyl]-2-ethoxypyridine-3-carboxamide] registered an IC50 in experiment [1] of 210 nM. In experiment [2], this molecule gave a GI50 of 410 nM.

Regarding `CCOc1ccc(Cl)cc1C(=O)NCC(C)(C)CC(=O)Nc1c(C(C)(C)CN(C)C)n(C)n(-c2ccccc2)c1=O` [Example 84, 5-Chloro-N-[4-({5-[2-(dimethylamino)-1,1-dimethylethyl]-1-methyl-3-oxo-2-phenyl-2,3-dihydro-1H-pyrazol-4-yl}amino)-2,2-dimethyl-4-oxobutyl]-2-ethoxybenzamide], inhibition in experiment [1] was half-maximal at 80 nM (IC50). The GI50 in experiment [2] is 170 nM.

In experiment [1], `CCOc1ccc(Cl)cc1C(=O)NCC(C)(C)CC(=O)Nc1c(C(C)C(C)(C)N(C)C)n(C)n(-c2ccccc2)c1=O` (stereo not drawn) [Example 87, 5-Chloro-N-[4-({5-[2-(dimethylamino)-1,2-dimethylpropyl]-1-methyl-3-oxo-2-phenyl-2,3-dihydro-1H-pyrazol-4-yl}amino)-2,2-dimethyl-4-oxobutyl]-2-ethoxybenzamide] returned an IC50 of 52 nM. For the same molecule, in experiment [2], the GI50 is 120 nM.

Take `CCOc1cc(F)c(Cl)cc1C(=O)NCC(C)(C)CC(=O)Nc1c(CCCCN(C)C)n(C)n(-c2ccccc2)c1=O` [Example 89, 5-Chloro-N-[4-({5-[4-(dimethylamino)butyl]-1-methyl-3-oxo-2-phenyl-2,3-dihydro-1H-pyrazol-4-yl}amino)-2,2-dimethyl-4-oxobutyl]-2-ethoxy-4-fluorobenzamide]: the IC50 in experiment [1] was 90 nM. Also, the GI50 in experiment [2] came out at 170 nM.

Take `Cc1cc2cc(Cl)cc(C(=O)NCC(C)(C)CC(=O)Nc3c(CCCCN(C)C)n(C)n(-c4ccccc4)c3=O)c2o1` [Example 90, 5-Chloro-N-[4-({5-[4-(dimethylamino)butyl]-1-methyl-3-oxo-2-phenyl-2,3-dihydro-1H-pyrazol-4-yl}amino)-2,2-dimethyl-4-oxobutyl]-2-methylbenzofuran-7-carboxamide]: half-maximal inhibition in experiment [1] (IC50) was put at 28 nM. Also, in experiment [2], the 50% growth inhibitory concentration (GI50) is 140 nM.

In experiment [1], `CCOc1ccc(Cl)cc1C(=O)NCC(C)(C)C(F)C(=O)Nc1c(CCN(C)C)n(C)n(-c2ccccc2)c1=O` (stereo not drawn) [Example 91, 5-Chloro-N-[4-({5-[2-(dimethylamino)ethyl]-1-methyl-3-oxo-2-phenyl-2,3-dihydro-1H-pyrazol-4-yl}amino)-3-fluoro-2,2-dimethyl-4-oxobutyl]-2-ethoxybenzamide] gave an IC50 of 110 nM. This molecule also showed a GI50 in experiment [2] of 180 nM.

`CCOc1cc(F)c(Cl)cc1C(=O)NCC(C)(C)CC(=O)Nc1c(C)n(C)n(-c2ccccc2)c1=O` [Example 92, 5-Chloro-N-{4-[(1,5-dimethyl-3-oxo-2-phenyl-2,3-dihydro-1H-pyrazol-4-yl)amino]-2,2-dimethyl-4-oxobutyl}-2-ethoxy-4-fluorobenzamide] gave an IC50 in experiment [1] of 26 nM. In experiment [2], this molecule displayed a GI50 of 560 nM.

As for `COCOc1ccc(Cl)cc1C(=O)NCC(C)(C)CC(=O)Nc1c(COC)n(C)n(-c2ccccc2)c1=O` [Example 115, 5-Chloro-2-(methoxymethoxy)-N-(4-{[5-(methoxymethyl)-1-methyl-3-oxo-2-phenyl-2,3-dihydro-1H-pyrazol-4-yl]amino}-2,2-dimethyl-4-oxobutyl)benzamide], the IC50 in experiment [1] came to 41 nM. Further, in experiment [2], halving of growth (GI50) required 130 nM.

`COCOc1cc(F)c(Cl)cc1C(=O)NCC(C)(C)CC(=O)Nc1c(COC)n(C)n(-c2ccccc2)c1=O` [Example 116, 5-Chloro-4-fluoro-2-(methoxymethoxy)-N-(4-{[5-(methoxymethyl)-1-methyl-3-oxo-2-phenyl-2,3-dihydro-1H-pyrazol-4-yl]amino}-2,2-dimethyl-4-oxobutyl)benzamide]: the concentration for half-maximal inhibition (IC50) in experiment [1] came to 14 nM. Besides, the GI50 in experiment [2] is 140 nM.

A word on the IC50: it is the concentration that inhibits the measured activity by half. The low end stands for greater potency, the high end for weaker potency. One may read the GI50 as the concentration at which growth is held to half of that of the control.
